Measurements reported in patent US20250262279A1, “DOSE REGIMEN FOR LONG-ACTING GLP1/GLUCAGON RECEPTOR AGONISTS” (Boehringer Ingelheim International GmbH, priority 2021, published 2025).
Like-named read-outs stand apart in the source and are kept apart here.

Test: Example 1: plasma pharmacokinetics
Type: in vivo
Conditions: human, sc; for Cmax: read-out: Cmax (gMean)

SMILES: CC[C@H](C)[C@H](NC(=O)[C@H](Cc1ccccc1)NC(=O)[C@H](CC(=O)O)NC(=O)[C@H](CCCCN)NC(=O)[C@H](C)NC(=O)[C@H](C)NC(=O)[C@H](CCCNC(=N)N)NC(=O)[C@H](CCC(=O)O)NC(=O)[C@H](CC(=O)O)NC(=O)[C@H](CC(C)C)NC(=O)[C@H](Cc1ccc(O)cc1)NC(=O)[C@H](CCCCN)NC(=O)[C@H](CO)NC(=O)[C@H](Cc1ccc(O)cc1)NC(=O)[C@H](CC(=O)O)NC(=O)[C@H](CO)NC(=O)[C@@H](NC(=O)[C@H](Cc1ccccc1)NC(=O)[C@@H](NC(=O)CNC(=O)[C@H](CCC(N)=O)NC(=O)C1(NC(=O)[C@@H](N)Cc2c[nH]cn2)CCC1)[C@@H](C)O)[C@@H](C)O)C(=O)N[C@@H](CCCCNC(=O)CNC(=O)CNC(=O)[C@H](CO)NC(=O)CNC(=O)[C@H](CO)NC(=O)CNC(=O)CC[C@H](NC(=O)CCCCCCCCCCCCCCCCC(=O)O)C(=O)O)C(=O)N[C@@H](Cc1c[nH]c2ccccc12)C(=O)N[C@@H](CC(C)C)C(=O)N[C@@H](CCC(=O)O)C(=O)N[C@@H](CO)C(=O)N[C@@H](C)C(N)=O [Compound I]
- AUC(0-t) (0.3 mg, Ex.1 twice weekly scheme, wk 1, 0.3 mg sc, read-out: AUC0-72 (gMean)): 0.342 µM·h
- Cmax (0.3 mg, Ex.1 twice weekly scheme, wk 1, 0.3 mg sc): 5.38 nM
- AUC(0-t) (0.3 mg, Ex.1 weekly scheme 1, wk 1, 0.3 mg sc, read-out: AUC0-168 (gMean)): 0.617 µM·h
- Cmax (0.3 mg, Ex.1 weekly scheme 1, wk 1, 0.3 mg sc): 5.08 nM
- AUC(0-t) (0.4 mg, Ex.1 weekly scheme 2, wk 1, 0.4 mg sc, read-out: AUC0-168 (gMean)): 0.818 µM·h
- Cmax (0.4 mg, Ex.1 weekly scheme 2, wk 1, 0.4 mg sc): 6.51 nM
- AUC(0-t) (0.6 mg, Ex.1 twice weekly scheme, wk 3, 0.6 mg sc, read-out: AUC0-72 (gMean)): 1.2 µM·h
- Cmax (0.6 mg, Ex.1 twice weekly scheme, wk 3, 0.6 mg sc): 20.4 nM
- AUC(0-t) (0.6 mg, Ex.1 weekly scheme 1, wk 2, 0.6 mg sc, read-out: AUC0-168 (gMean)): 1.41 µM·h
- Cmax (0.6 mg, Ex.1 weekly scheme 1, wk 2, 0.6 mg sc): 12.3 nM
- AUC(0-t) (0.6 mg, Ex.1 weekly scheme 3, wk 1, 0.6 mg sc, read-out: AUC0-168 (gMean)): 1.24 µM·h
- Cmax (0.6 mg, Ex.1 weekly scheme 3, wk 1, 0.6 mg sc): 10.7 nM
- AUC(0-t) (0.6 mg, Ex.1 weekly scheme 3, wk 2, 0.6 mg sc, read-out: AUC0-168 (gMean)): 1.71 µM·h
- Cmax (0.6 mg, Ex.1 weekly scheme 3, wk 2, 0.6 mg sc): 14.4 nM
- AUC(0-t) (0.6 mg, Ex.1 weekly scheme 4, wk 1, 0.6 mg sc, read-out: AUC0-168 (gMean)): 1.57 µM·h
- Cmax (0.6 mg, Ex.1 weekly scheme 4, wk 1, 0.6 mg sc): 15.7 nM
- AUC(0-t) (0.6 mg, Ex.1 weekly scheme 4, wk 3, 0.6 mg sc, read-out: AUC0-168 (gMean)): 2.49 µM·h
- Cmax (0.6 mg, Ex.1 weekly scheme 4, wk 3, 0.6 mg sc): 22.3 nM
- AUC(0-t) (0.6 mg, Ex.1 weekly scheme 5, wk 1, 0.6 mg sc, read-out: AUC0-168 (gMean)): 1.44 µM·h
- Cmax (0.6 mg, Ex.1 weekly scheme 5, wk 1, 0.6 mg sc): 13.2 nM
- AUC(0-t) (0.8 mg, Ex.1 weekly scheme 2, wk 2, 0.8 mg sc, read-out: AUC0-168 (gMean)): 2.04 µM·h
- Cmax (0.8 mg, Ex.1 weekly scheme 2, wk 2, 0.8 mg sc): 16.9 nM
- AUC(0-t) (0.9 mg, Ex.1 twice weekly scheme, wk 5, 0.9 mg sc, read-out: AUC0-72 (gMean)): 2.39 µM·h
- Cmax (0.9 mg, Ex.1 twice weekly scheme, wk 5, 0.9 mg sc): 40.8 nM
- AUC(0-t) (0.9 mg, Ex.1 twice weekly scheme, wk 6, 0.9 mg sc, read-out: AUC0-72 (gMean)): 2.78 µM·h
- Cmax (0.9 mg, Ex.1 twice weekly scheme, wk 6, 0.9 mg sc): 49.2 nM
- AUC(0-t) (0.9 mg, Ex.1 weekly scheme 1, wk 3, 0.9 mg sc, read-out: AUC0-168 (gMean)): 2.48 µM·h
- Cmax (0.9 mg, Ex.1 weekly scheme 1, wk 3, 0.9 mg sc): 20.6 nM
- AUC(0-t) (1.2 mg, Ex.1 twice weekly scheme, wk 7, 1.2 mg sc, read-out: AUC0-72 (gMean)): 3.56 µM·h
- Cmax (1.2 mg, Ex.1 twice weekly scheme, wk 7, 1.2 mg sc): 58.8 nM
- AUC(0-t) (1.2 mg, Ex.1 weekly scheme 1, wk 4, 1.2 mg sc, read-out: AUC0-168 (gMean)): 3.36 µM·h
- Cmax (1.2 mg, Ex.1 weekly scheme 1, wk 4, 1.2 mg sc): 28.1 nM
- AUC(0-t) (1.2 mg, Ex.1 weekly scheme 2, wk 3, 1.2 mg sc, read-out: AUC0-168 (gMean)): 3.56 µM·h
- Cmax (1.2 mg, Ex.1 weekly scheme 2, wk 3, 1.2 mg sc): 31.7 nM
- AUC(0-t) (1.2 mg, Ex.1 weekly scheme 3, wk 3, 1.2 mg sc, read-out: AUC0-168 (gMean)): 3.23 µM·h
- Cmax (1.2 mg, Ex.1 weekly scheme 3, wk 3, 1.2 mg sc): 28.1 nM
- AUC(0-t) (1.2 mg, Ex.1 weekly scheme 4, wk 5, 1.2 mg sc, read-out: AUC0-168 (gMean)): 3.94 µM·h
- Cmax (1.2 mg, Ex.1 weekly scheme 4, wk 5, 1.2 mg sc): 36 nM
- AUC(0-t) (1.2 mg, Ex.1 weekly scheme 4, wk 6, 1.2 mg sc, read-out: AUC0-168 (gMean)): 4.7 µM·h
- Cmax (1.2 mg, Ex.1 weekly scheme 4, wk 6, 1.2 mg sc): 41.9 nM
- AUC(0-t) (1.2 mg, Ex.1 weekly scheme 4, wk 7, 1.2 mg sc, read-out: AUC0-168 (gMean)): 5.19 µM·h
- Cmax (1.2 mg, Ex.1 weekly scheme 4, wk 7, 1.2 mg sc): 49 nM
- AUC(0-t) (1.2 mg, Ex.1 weekly scheme 5, wk 3, 1.2 mg sc, read-out: AUC0-168 (gMean)): 3.79 µM·h
- Cmax (1.2 mg, Ex.1 weekly scheme 5, wk 3, 1.2 mg sc): 31.5 nM
- AUC(0-t) (1.5 mg, Ex.1 twice weekly scheme, wk 9, 1.5 mg sc, read-out: AUC0-72 (gMean)): 5 µM·h
- Cmax (1.5 mg, Ex.1 twice weekly scheme, wk 9, 1.5 mg sc): 78.3 nM
- AUC(0-t) (1.5 mg, Ex.1 weekly scheme 1, wk 5, 1.5 mg sc, read-out: AUC0-168 (gMean)): 4.49 µM·h
- Cmax (1.5 mg, Ex.1 weekly scheme 1, wk 5, 1.5 mg sc): 37.8 nM
- AUC(0-t) (1.6 mg, Ex.1 weekly scheme 2, wk 4, 1.6 mg sc, read-out: AUC0-168 (gMean)): 5.13 µM·h
- Cmax (1.6 mg, Ex.1 weekly scheme 2, wk 4, 1.6 mg sc): 44.3 nM
- AUC(0-t) (1.8 mg, Ex.1 twice weekly scheme, wk 11, 1.8 mg sc, read-out: AUC0-72 (gMean)): 5.69 µM·h
- Cmax (1.8 mg, Ex.1 twice weekly scheme, wk 11, 1.8 mg sc): 93.6 nM
- AUC(0-t) (1.8 mg, Ex.1 weekly scheme 1, wk 6, 1.8 mg sc, read-out: AUC0-168 (gMean)): 5.53 µM·h
- Cmax (1.8 mg, Ex.1 weekly scheme 1, wk 6, 1.8 mg sc): 45.5 nM
- AUC(0-t) (1.8 mg, Ex.1 weekly scheme 3, wk 4, 1.8 mg sc, read-out: AUC0-168 (gMean)): 5.2 µM·h
- Cmax (1.8 mg, Ex.1 weekly scheme 3, wk 4, 1.8 mg sc): 46.5 nM
- AUC(0-t) (1.8 mg, Ex.1 weekly scheme 4, wk 11, 1.8 mg sc, read-out: AUC0-168 (gMean)): 8.16 µM·h
- Cmax (1.8 mg, Ex.1 weekly scheme 4, wk 11, 1.8 mg sc): 69.9 nM
- AUC(0-t) (1.8 mg, Ex.1 weekly scheme 4, wk 19, 1.8 mg sc, read-out: AUC0-168 (gMean)): 6.66 µM·h
- Cmax (1.8 mg, Ex.1 weekly scheme 4, wk 19, 1.8 mg sc): 60.2 nM
- AUC(0-t) (1.8 mg, Ex.1 weekly scheme 5, wk 5, 1.8 mg sc, read-out: AUC0-168 (gMean)): 6.08 µM·h
- Cmax (1.8 mg, Ex.1 weekly scheme 5, wk 5, 1.8 mg sc): 57.9 nM
